Here are results for twelve sequences from patent publication US20050164945A1, “Endotheliase-1 ligands” (priority 2003, published 2005).

In general, IC50 refers to the concentration needed to halve the response being measured.

Some results are limits rather than exact numbers.

Assay [1] deals with Trypsin. Conditions: read-out: Trypsin estimated IC50, 30 minute preincubation with 100 nM Kunitz domain. On the procedure:
(§1) Cloning into this vector placed a His-tag at the C-terminus of the protein that was used to facilitate purification.
(§2) For protein production, E. coli containing the expression vector were grown in media containing ampicillin and 2% glucose to an OD600 of 0.5. At this time the cells were spun down and the media removed. The cell pellet was then resuspended in fresh media containing ampicillin and 1 mM IPTG to induce expression of the protein. The cells were allowed to grow with shaking overnight at 30° C. before harvesting by centrifugation. Periplasmic extracts were then prepared and the MBP-Kunitz fusion purified using immobilized metal ion chromatography.

Assay [2] deals with fXa (Homo sapiens, UniProt P00742). Conditions: 30 minute preincubation with 100 nM Kunitz domain. The procedure: as §1, §2
Assay [3] concerns the target MTSP-1 (Homo sapiens, UniProt Q9Y5Y6). Conditions: 30 minute preincubation with 100 nM Kunitz domain. On the procedure: as §1, §2
Assay [4] concerns ET-2. Conditions: for IC50: read-out: ET-2 estimated IC50, 30 minute preincubation with 100 nM Kunitz domain; for ET-2 estimated IC50: 30 minute preincubation with 100 nM Kunitz domain. On the procedure:
as §1, §2

In assay [5] the target is TnIV (Homo sapiens, UniProt P35030). Conditions: 30 minute preincubation with 100 nM Kunitz domain. The procedure:
as §1, §2

Sequence of MTSP-1 (Q9Y5Y6 whole entry, species assumed, the tested form may be a part): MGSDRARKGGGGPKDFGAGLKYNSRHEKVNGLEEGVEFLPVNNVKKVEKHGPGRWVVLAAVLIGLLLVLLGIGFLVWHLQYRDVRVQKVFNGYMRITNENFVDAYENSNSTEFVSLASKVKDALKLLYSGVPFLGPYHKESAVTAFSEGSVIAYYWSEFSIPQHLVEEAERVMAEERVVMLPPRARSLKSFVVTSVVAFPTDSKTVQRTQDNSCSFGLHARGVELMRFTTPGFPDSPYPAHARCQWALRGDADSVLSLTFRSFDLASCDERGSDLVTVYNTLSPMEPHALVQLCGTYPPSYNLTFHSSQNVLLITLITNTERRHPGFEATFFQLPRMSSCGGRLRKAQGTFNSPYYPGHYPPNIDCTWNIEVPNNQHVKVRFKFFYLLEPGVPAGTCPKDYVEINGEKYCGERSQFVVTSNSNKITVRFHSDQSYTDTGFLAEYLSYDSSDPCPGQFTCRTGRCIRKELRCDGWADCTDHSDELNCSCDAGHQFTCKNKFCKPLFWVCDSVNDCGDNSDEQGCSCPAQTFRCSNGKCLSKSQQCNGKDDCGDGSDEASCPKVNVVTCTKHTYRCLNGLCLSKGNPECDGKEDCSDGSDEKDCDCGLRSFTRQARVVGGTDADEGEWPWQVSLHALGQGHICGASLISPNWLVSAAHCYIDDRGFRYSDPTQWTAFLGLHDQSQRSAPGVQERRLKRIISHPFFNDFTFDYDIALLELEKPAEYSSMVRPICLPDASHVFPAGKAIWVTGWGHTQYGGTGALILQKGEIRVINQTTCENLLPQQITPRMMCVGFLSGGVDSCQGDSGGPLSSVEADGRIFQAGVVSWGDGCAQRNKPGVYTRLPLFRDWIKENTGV
Sequence of TnIV (P35030 whole entry, the tested form may be a part): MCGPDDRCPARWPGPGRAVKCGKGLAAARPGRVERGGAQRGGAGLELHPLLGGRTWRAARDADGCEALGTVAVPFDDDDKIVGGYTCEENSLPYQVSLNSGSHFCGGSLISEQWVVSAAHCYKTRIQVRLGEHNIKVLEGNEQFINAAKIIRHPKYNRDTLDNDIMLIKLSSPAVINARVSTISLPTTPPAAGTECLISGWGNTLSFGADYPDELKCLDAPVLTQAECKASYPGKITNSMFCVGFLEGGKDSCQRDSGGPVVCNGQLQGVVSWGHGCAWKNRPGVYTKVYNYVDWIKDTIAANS
Sequence of fXa (P00742 235-488 limits assumed): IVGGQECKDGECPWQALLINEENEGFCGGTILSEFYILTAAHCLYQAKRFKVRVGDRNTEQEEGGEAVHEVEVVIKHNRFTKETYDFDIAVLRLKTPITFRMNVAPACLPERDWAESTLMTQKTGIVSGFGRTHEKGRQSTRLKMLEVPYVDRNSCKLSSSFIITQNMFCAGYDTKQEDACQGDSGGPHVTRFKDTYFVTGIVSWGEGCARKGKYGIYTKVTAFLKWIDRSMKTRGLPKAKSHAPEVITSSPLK
Sequence of fXa (P00742 41-179 partner limits assumed): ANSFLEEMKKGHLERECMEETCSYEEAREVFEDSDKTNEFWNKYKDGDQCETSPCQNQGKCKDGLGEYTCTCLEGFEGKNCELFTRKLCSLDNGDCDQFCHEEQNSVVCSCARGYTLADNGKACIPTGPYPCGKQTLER
Sequence of ET-2 (Q9BYE2 326-559 limits assumed): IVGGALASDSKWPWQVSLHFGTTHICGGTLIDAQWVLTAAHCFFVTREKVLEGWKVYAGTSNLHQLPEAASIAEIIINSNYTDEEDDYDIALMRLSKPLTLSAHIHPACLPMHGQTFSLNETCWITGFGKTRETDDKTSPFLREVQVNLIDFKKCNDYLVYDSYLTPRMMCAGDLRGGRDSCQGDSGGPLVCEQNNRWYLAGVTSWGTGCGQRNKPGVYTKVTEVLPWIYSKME

For “MAAEMHSFCAFKADQGPCRAAISRFFFNIFTRQCEEFVYGGCEGNQNRFESLEECKKMCTRDSASSASGDFD [MBP-1D9]”, the concentration for half-maximal inhibition (IC50) in assay [1] is about 50 nM; in assay [4], at least 1000 nM. Also, in assay [2], the “fXa estimated IC50” value is listed as “IA (IA = <5% inhibition @ 100 nM)”. In addition, the “MTSP-1 estimated IC50” value in assay [3] is recorded as “IA (IA = <5% inhibition @ 100 nM)”.
Take “MAAEMHSFCAFKADPGPCRAMFNRFFFNIFTRQCEEFNYGGCSGNQNRFESLEECKKMCTRDSASSASGDFD [MBP-1E6]”: the IC50 was under 10 nM in assay [1] and about 400 nM in assay [4]. In assay [2], the “fXa estimated IC50” value is reported as “IA (IA = <5% inhibition @ 100 nM)”.
As to “MAAEMHSFCAFKADPGQCRAYYRRFFFNIFTRQCEEFVYGGCMGNQNRFESLEECKKMCTRDSASSASGDFD [MBP-1G2]”, the IC50 was under 10 nM in assay [1] and about 300 nM in assay [4]. Besides, in assay [3], the “MTSP-1 estimated IC50” value is “IA (IA = <5% inhibition @ 100 nM)”.
For the sequence “MAAEMHSFCAFKADKGFCRAMDIRFFFNIFTRQCEEFIYGGCGGNQNRFESLEECKKMCTRDSASSASGDFD [MBP-1B2]”, the IC50 in assay [1] is under 10 nM. In addition, the “fXa estimated IC50” value in assay [2] is “IA (IA = <5% inhibition @ 100 nM)”. Besides, in assay [3], the “MTSP-1 estimated IC50” value was “IA (IA = <5% inhibition @ 100 nM)”. For the same sequence, the “ET-2 estimated IC50” value in assay [4] is on record as “IA (IA = <5% inhibition @ 100 nM)”.
With “MAAEMHSFCAFKADRGPCRADFHRFFFNIFTRQCEEFHYGGCGGNQNRFESLEECKKMCTRDSASSASGDFD [MBP-1A10]”, the IC50 in assay [1] is under 10 nM. Also, the “fXa estimated IC50” value in assay [2] was “IA (IA = <5% inhibition @ 100 nM)”. Moreover, the “ET-2 estimated IC50” value in assay [4] was “IA (IA = <5% inhibition @ 100 nM)”.
Turning to “MAAEMHSFCAFKADKGECRASVQRFFFNIFTRQCEEFNYGGCGGNQNRFESLEECKKMCTRDSASSASGDFD [MBP-D12]”, the IC50 in assay [1] was about 30 nM. The “MTSP-1 estimated IC50” value in assay [3] is recorded as “IA (IA = <5% inhibition @ 100 nM)”. Besides, the “ET-2 estimated IC50” value in assay [4] is on record as “IA (IA = <5% inhibition @ 100 nM)”.
“MAAEMHSFCAFKADTGPCRADIKRFFFNIFTRQCEEFRYGGCMGNQNRFESLEECKKMCTRDSASSASGDFD [MBP-1G9]”: the “TnIV estimated IC50” value in assay [5] was “IA (IA = <5% inhibition @ 100 nM)”. For the same sequence, in assay [1], the IC50 is about 60 nM. In addition, in assay [2], the “fXa estimated IC50” value was “IA (IA = <5% inhibition @ 100 nM)”. Besides, the “ET-2 estimated IC50” value in assay [4] is recorded as “IA (IA = <5% inhibition @ 100 nM)”.
With “MAAEMHSFCAFKADTGTCRAAMVRFFFNIFTRQCEEFTYGGCEGNQNRFESLEECKKMCTRDSASSASGDFD [MBP-1H8]”, in assay [5], the “TnIV estimated IC50” value was “IA (IA = <5% inhibition @ 100 nM)”. Moreover, the IC50 in assay [1] is about 30 nM. The “fXa estimated IC50” value in assay [2] is on record as “IA (IA = <5% inhibition @ 100 nM)”. Besides, the “MTSP-1 estimated IC50” value in assay [3] was “IA (IA = <5% inhibition @ 100 nM)”. In assay [4], the “ET-2 estimated IC50” value is listed as “IA (IA = <5% inhibition @ 100 nM)”.
On to “MAAEMHSFCAFKADRGPCRAYFDRFFFNIFTRQGEEFIYGGCMGNQNRFESLEECKKMCTRDSASSASGDFD [MBP-1G8]”, for which the IC50 in assay [1] is about 10 nM. Besides, the “MTSP-1 estimated IC50” value in assay [3] is reported as “IA (IA = <5% inhibition @ 100 nM)”. Further, the “ET-2 estimated IC50” value in assay [4] is “IA (IA = <5% inhibition @ 100 nM)”.
For “MAAEMHSFCAFKADQGPCRASVHRFFFNIFTRQCEEFFYGGCLGNQNRFESLEECKKMCTRDSASSASGDFD [MBP-1F8]”, in assay [5], the “TnIV estimated IC50” value is “IA (IA = <5% inhibition @ 100 nM)”. In addition, the IC50 in assay [1] was under 10 nM. Besides, in assay [2], the “fXa estimated IC50” value is given as “IA (IA = <5% inhibition @ 100 nM)”. The “MTSP-1 estimated IC50” value in assay [3] is given as “IA (IA = <5% inhibition @ 100 nM)”. In addition, the “ET-2 estimated IC50” value in assay [4] is reported as “IA (IA = <5% inhibition @ 100 nM)”.
For the sequence “MAAEMHSFCAFKADPGPCRAIMTRFFFNIFTRQCEEFRYGGCLGNQNRFESLEECKKMCTRDSASSASGDFD [MBP-1G11]”, the IC50 in assay [1] was under 10 nM; in assay [4], at least 1000 nM. In addition, the “MTSP-1 estimated IC50” value in assay [3] is given as “IA (IA = <5% inhibition @ 100 nM)”.
Take “MAAEMHSFCAFKADKGTCRGDFPRFFFNIFTRQCEEFHYGGCGGNQNRFESLEECKKMCTRDSASSASGDFD [MBP-1E9]”: in assay [1], the IC50 is at least 1000 nM. Further, in assay [2], the “fXa estimated IC50” value is “IA (IA = <5% inhibition @ 100 nM)”. In addition, the “MTSP-1 estimated IC50” value in assay [3] is on record as “IA (IA = <5% inhibition @ 100 nM)”. The “ET-2 estimated IC50” value in assay [4] is listed as “IA (IA = <5% inhibition @ 100 nM)”.
